EP0504254B1, “THE USE OF GIBBERELLINS FOR THE MANUFACTURE OF A MEDICAMENT FOR THE TREATMENT OF PROSTATITIS” (ODEN, Per, priority 1989, dated 1991)

What was measured:
[1] = tested on: male adult uncastrated rats; experiment: Dihydrotestosterone-induced hypertrophic growth of the prostatic gland in rats; type: in vivo; settings: daily 50 mg dihydrotestosterone alone for three months
Method: The weight of the prostate was 814 mg, which was equivalent to about 0.34 % of the total body weight. When the rats were simultaneously given a daily dosis of 100 µg of gibberellins GA₂₀ and GA₃₀, an increase in prostate weight was not detected. The weight of the prostate was in this case 582 mg, which was equivalent to 0.20 % of the total body weight.

castrated rats = settings: C.R. Séances Soc. Biol. Filiales 163 (1969); cited from earlier work

Row | SMILES | weight of the prostate [1] [mg] | weight of the prostate, equivalent % of the total body weight [1] | prostate weight (castrated rats)
1 | C[C@]12CCC(=O)C[C@@H]1CC[C@@H]1[C@@H]2CC[C@]2(C)[C@@H](O)CC[C@@H]12 [dihydrotestosterone] | 814 | about 0.34% | –
2 | C=C1C[C@]23C[C@@]1(O)CC[C@H]2[C@@]12C=C[C@H](O)[C@@](C)(C(=O)O1)[C@H]2[C@@H]3C(=O)O [gibberellic acid] | – | – | restitution of prostate weight
